Patent US12486227B2, “Small molecules for cancer therapy that reduce the expression of transcription factors KLF5 and EGR-1” (University of Florida Research Foundation, Incorporated, priority 2019, dated 2025)
Like-named read-outs stand apart in the source and are kept apart here.

How the values were obtained:
DLD-1 colon cancer cells = test: MTT viability assay, DLD-1; format: cell-based; settings: Homo sapiens
Description: Specific Examples of compounds of the present disclosure have EC50 values estimated using a cell-based assay for binding to the KLF5 promoter and, in many cases, a follow-up viability assay (MTT) using DLD-1 colon cancer cells, a cell line known to highly express KLF5 and whose growth is adversely affected by the reduction of KLF5 levels. Assay protocols follow those described in the literature.^22,23 Other assays that are not described here but that are standard in the field may also be useful in establishing mechanism of action of these compounds.

human KLF5 promoter = test: KLF5 promoter activity luciferase assay in DLD-1/pGL4.18hKLF5p cells; format: cell-based; settings: for EC50: read-out: Approximate potency (EC50 · mol/L) (luciferase)
Method: To examine the impact of these compounds on viability of CRC cell lines, we performed cell proliferation and cell growth assays using DLD-1 and HCT116 CRC cells. […] KLF5 promoter activity assay. DLD-1/pGL4.18hKLF5p cells were seeded in 96 well plate format and treated with DMSO or with test compounds dissolved in DMSO in the range of 0.001 to 20 μM final concentration for 24 h and the human KLF5 promoter activity was determined with the ONE-Glo luciferase assay system (Promega) using a SpectramMax M3 (Molecular Devices) plate reader. The IC50 values were calculated using GraphPad Prism version 5.00 for Windows (GraphPad Software) (22).

KLF5 = test: Western blot of KLF5 protein levels in DLD-1 cells; format: cell-based, human; settings: 1 μM and 10 μM, 24 h
Method: In this experiment the test compounds were at 1 μM and 10 μM, and protein levels were measured after 24 h.
(§1) Western blot analysis. Total protein was extracted from cells with Laemmli buffer and the analysis was performed as described previously (24).

Cyclin D1, E, A2, and B1 = test: Western blot of cyclin levels; format: cell-based, human; settings: DLD-1 and HCT116, 1 μM or 10 μM, 72 h
Description: Cyclins and their appropriate cyclin-dependent kinases form a regulatory network that allow cells to progress through the cell cycle (39, 40). […] SR15006, or SR18662, as compared to vehicle-treated cells. Thus, we investigated if these changes are accompanied by differences in the expression levels of cyclins. We focused our attention on Cyclin D1, E, A2, and B1, as we have previously shown that ML264 has inhibitory effect on their levels (24). […] Additionally, in contrast to ML264 or SR15006, SR18862 induced apoptosis and cell death.
as §1

MAPK pathway = test: Western blot of MAPK signaling pathway components; format: cell-based, human; settings: DLD-1 and HCT116, 10 μM, 72 h
Description: SR18662 negatively regulates MAPK and WNT signaling pathway and cyclin levels. Myriad publications have shown that in both in vitro and in vivo contexts KLF5 is regulated by MAPK and WNT signaling pathways and that KLF5, in turn, has the ability to modulate the activity of these pathways (14, 18, 26-32). We have previously shown that treatment of CRCs with ML264 results in decreased activity of both the MAPK and WNT signaling pathways (24). Because SR15006 and SRI8662 are structurally related to ML264, we decided to investigate their ability to alter the expression levels of the components of these pathways. Thus, we treated DLD-1 and HCT116 CRCs with DMSO (vehicle) and tested compounds at 1 μM or 10 μM, collecting the cells for western blot analysis at 24, 48, and 72 h. […] Similar effects were seen when both cell lines were treated these compounds at 1 μM. Furthermore, the inhibitory effects of SR18662 on the components of the MAPK signaling pathway we observed at earlier time points than were apparent following treatment with ML264 or SR15006.
as §1

[1] = test system: DLD-1 and HCT116 CRC cells; test: Cell cycle analysis by flow cytometry (propidium iodide); format: cell-based, human; settings: 10 μM, over three days
Method: SR18662 alters the cell cycle pattern of CRCs. […] We have also evaluated the impact of SR15006 and SR18662 on cell cycle progression. We treated DLD-1 and HCT116 CRC cells over the course of three days with vehicle or 1 μM or 10 μM of test compound and then analyzed cell cycle using flow cytometry.
Cell proliferation, cell cycle and apoptosis assays. For cell proliferation experiments, cell cycle, and apoptosis determination, DLD-1 and HCT116 cells were treated with 1 or 10 μM of each compound or with vehicle (DMSO). The cells were collected at 24, 48, and 72 h post-treatment and analyzed as previously described (24). Each experiment was performed in triplicate.

[2] = test system: DLD-1-derived tumor xenografts; settings: once a day 25 mg/kg; cited from earlier work
[3] = test system: HT-29 colorectal cancer cell line; test: MTT growth assay, HT-29; format: cell-based; settings: Homo sapiens, Table 1
Description: (§2) The observed activity is greater than that previously seen for ML264.

[4] = test system: SW-620 colorectal cancer cell line; test: MTT growth assay, SW-620; format: cell-based; settings: Homo sapiens, Table 1
Description: as §2

[5] = test system: HCT-116 colorectal cancer cell line; test: MTT growth assay, HCT-116; format: cell-based; settings: Homo sapiens, Table 1
Description: as §2

[6] = Table 2, read-out: Approximate potency (EC50 · mol/L) (DLD1, MTT assay)

Structure (SMILES)	EC50 (DLD-1 colon cancer cells; [6])	EC50 (human KLF5 promoter; Homo sapiens, DLD-1, Table 2)	also measured
CS(=O)(=O)NCC1CCN(C(=O)CNC(=O)/C=C/c2cccc(Cl)c2)C1 (centres unmarked) [Example 3, (E)-3-(3-chlorophenyl)-N-(2-(3-(methylsulfonamidomethyl)pyrrolidin-1-yl)-2-oxoethyl)acrylamide]	–	846 nM	–
CS(=O)(=O)N1CCCN(C(=O)CNC(=O)/C=C/c2cccc(Cl)c2)CC1 [Example 6, (E)-3-(3-chlorophenyl)-N-(2-(4-(methylsulfonyl)-1,4-diazepan-1-yl)-2-oxoethyl)acrylamide]	–	1080 nM	–
O=C(/C=C/c1cccc(Cl)c1)NCC(=O)N1CCN(S(=O)(=O)C2CCCCC2)CC1 [Example 7, (E)-3-(3-chlorophenyl)-N-(2-(4-(cyclohexylsulfonyl)piperazin-1-yl)-2-oxoethyl)acrylamide]	347 nM	1280 nM	–
CC(C)CS(=O)(=O)N1CCN(C(=O)CNC(=O)/C=C/c2cccc(Cl)c2)CC1 [Example 8, (E)-3-(3-chlorophenyl)-N-(2-(4-(isobutylsulfonyl)piperazin-1-yl)-2-oxoethyl)acrylamide]	322 nM	7050 nM	–
CS(=O)(=O)N1CCN(C(=O)CNC(=O)/C=C/c2ccc(F)c(F)c2)CC1 [Example 14, (E)-3-(3,4-difluorophenyl)-N-(2-(4-(methylsulfonyl)piperazin-1-yl)-2-oxoethyl)acrylamide]	41 nM	46.1 nM	–
Cc1ccc(/C=C/C(=O)NCC(=O)N2CCN(S(C)(=O)=O)CC2)cc1Cl [Example 15, (E)-3-(3-chloro-4-methylphenyl)-N-(2-(4-(methylsulfonyl)piperazin-1-yl)-2-oxoethyl)acrylamide]	3.63 nM	6.28 nM	–
CS(=O)(=O)N1CCN(C(=O)CNC(=O)/C=C/c2ccc3c(c2)OCO3)CC1 [Example 18, (E)-3-(benzo[d][1,3]dioxol-5-yl)-N-(2-(4-(methylsulfonyl)piperazin-1-yl)-2-oxoethyl)acrylamide]	15.3 nM	20.1 nM	–
CN(C(=O)CNC(=O)/C=C/c1cccc(Cl)c1)C1CCS(=O)(=O)CC1 [ML264, reference compound]	–	–	growth of CRC xenografts [2]: significantly reduced the growth; EC50 (DLD-1 colon cancer cells; MTT, Table 1, read-out: EC50 (nM) DLD-1): 13 nM; KLF5 protein levels by Western blot (KLF5): significantly reduced; EC50 [3]: 295 nM; EC50 [4]: 412 nM; EC50 [5]: 34 nM; levels of cyclins (Cyclin D1, E, A2, and B1): significant reduction in the levels of tested cyclins; expression levels of MAPK pathway components (MAPK pathway): negatively regulated the expression levels of the components of the MAPK pathway; cell cycle distribution [1]: significant decrease in the number of cells in G0/G1 and an increase in cells in S- and G2/M phases

Further lines, with some results ahead:

EC50 (DLD-1 colon cancer cells; [6])	EC50 (human KLF5 promoter; Homo sapiens, DLD-1, Table 2)	Structure (SMILES)	also measured
16.3 nM	41.6 nM	CS(=O)(=O)N1CCN(C(=O)CNC(=O)/C=C/c2cccc(Cl)c2)CC1 [Example 1, (E)-3-(3-chlorophenyl)-N-(2-(4-(methylsulfonyl)piperazin-1-yl)-2-oxoethyl)acrylamide]	IC50 (human KLF5 promoter; Homo sapiens, DLD-1, 24 h treatment, FIG. 1B, read-out: IC50, human KLF5 promoter activity): 41.6 nM; KLF5 protein levels by Western blot (KLF5): significantly reduced; levels of cyclins (Cyclin D1, E, A2, and B1): significant reduction in the levels of tested cyclins; expression levels of MAPK pathway components (MAPK pathway): negatively regulated the expression levels of the components of the MAPK pathway; cell cycle distribution [1]: affected the cell cycle in the similar way as did ML264
140 nM	1410 nM	CS(=O)(=O)NCC1CCN(C(=O)CNC(=O)/C=C/c2cccc(Cl)c2)CC1 [Example 2, (E)-3-(3-chlorophenyl)-N-(2-(4-(methylsulfonamidomethyl)piperidin-1-yl)-2-oxoethyl)acrylamide]	–
2730 nM	–	CS(=O)(=O)N1CCC(CNC(=O)CNC(=O)/C=C/c2cccc(Cl)c2)CC1 [Example 4, (E)-3-(3-chlorophenyl)-N-(2-(((1-(methylsulfonyl)piperidin-4-yl)methyl)amino)-2-oxoethyl)acrylamide]	–
3.26 nM	–	CS(=O)(=O)N1CCC(CNC(=O)CNC(=O)/C=C/c2cccc(Cl)c2)C1 (centres unmarked) [Example 5, (E)-3-(3-chlorophenyl)-N-(2-(((1-(methylsulfonyl)pyrrolidin-3-yl)methyl)amino)-2-oxoethyl)acrylamide]	–
63.8 nM	170 nM	COc1ccc(/C=C/C(=O)NCC(=O)N2CCN(S(C)(=O)=O)CC2)cc1Cl [Example 10, (E)-3-(3-chloro-4-methoxyphenyl)-N-(2-(4-(methylsulfonyl)piperazin-1-yl)-2-oxoethyl)acrylamide]	–
25.3 nM	26.1 nM	CS(=O)(=O)N1CCN(C(=O)CNC(=O)/C=C/c2ccc(F)c(Cl)c2)CC1 [Example 11, (E)-3-(3-chloro-4-fluorophenyl)-N-(2-(4-(methylsulfonyl)piperazin-1-yl)-2-oxoethyl)acrylamide]	–
73.5 nM	87.8 nM	CS(=O)(=O)N1CCN(C(=O)CNC(=O)/C=C/c2cccc(Br)c2)CC1 [Example 12, (E)-3-(3-bromophenyl)-N-(2-(4-(methylsulfonyl)piperazin-1-yl)-2-oxoethyl)acrylamide]	–
78.1 nM	108 nM	CS(=O)(=O)N1CCN(C(=O)CNC(=O)/C=C/c2cc(Cl)cc(Cl)c2)CC1 [Example 13, (E)-3-(3,5-dichlorophenyl)-N-(2-(4-(methylsulfonyl)piperazin-1-yl)-2-oxoethyl)acrylamide]	–
315 nM	–	CS(=O)(=O)N1CCN(C(=O)CNC(=O)/C=C/c2ccc(C(F)(F)F)c(Cl)c2)CC1 [Example 16, (E)-3-(3-chloro-4-(trifluoromethyl)phenyl)-N-(2-(4-(methylsulfonyl)piperazin-1-yl)-2-oxoethyl)acrylamide]	Approximate potency (EC50 · mol/L) (luciferase) (human KLF5 promoter; Table 2): Not converged
1610 nM	7910 nM	CS(=O)(=O)N1CCN(C(=O)CNC(=O)/C=C/c2ccc(OC(F)(F)F)c(Cl)c2)CC1 [Example 17, (E)-3-(3-chloro-4-(trifluoromethoxy)phenyl)-N-(2-(4-(methylsulfonyl)piperazin-1-yl)-2-oxoethyl)acrylamide]	–
